Test results reported in patent publication US20120071537A1, “New Oral Formulation” (priority 1998, published 2012).

How the values were obtained:
[1] = system: rectal afferents; assay: Single unit activity of rectal afferent fibres during barostat-controlled rectal distension in decerebrate cats; type: in vivo; details: i.v., incremental doses from 0.15 to 1.2 mg/kg
Method: Decerebrate, anaesthesia-free cats under continuous monitoring of blood pressure are paralysed by alcuronium chloride dissolved in rheomacrodex i.v. (200 μg/kg initially and supplementary doses of 100 μg/kg, if necessary), and artificially ventilated. Single unit activity of afferent fibres are recorded in a monopolar fashion from peripheral endings of centrally cut filaments of sacral dorsal roots. Tension receptors are identified by probing of their receptive fields in the wall of the mobilised rectum. Thereafter, the response of the units to barostat-controlled rectal ramp-distension is determined. The quantitative response characteristics of the units is evaluated with respect to distension pressure and resulting rectal diameter. Alternatively, the response of the units to pressure-induced peristalsis is measured. After obtaining 2 distension profiles (5 min each) and/or 10 min of peristalsis under control conditions, a 5-HT4 receptor agonist, partial agonist or antagonist, e.g., Compound A, or vehicle is applied i.v. and the protocol is repeated. Subsequently, the activity of additional units is recorded in the presence of a 5-HT4 receptor agonist, partial agonist or antagonist, e.g., Compound A, or vehicle according to the distension/peristalsis protocol. […]

[2] = system: equine intestine; assay: Gastro-intestinal motility after colic surgery (post-operative ileus) in horses; type: in vivo; details: i.v. or i.m., 0.01 to 10 mg/kg every 8 to 24 h
Method: 20 horses having colic syndrome are submitted to abdominal surgery. During surgery supportive therapy is applied to them. At the end of surgery, a specific 5-HT4 receptor agonist or partial agonist, e.g., Compound A, is administered i.v. or i.m., e.g. at a dose of from 0.01 to 10 mg/kg. This dose is repeated every 8 to 24 h until spontaneous defecation is observed. Gastro-intestinal motility is evaluated based e.g. on the presence or absence of gastric reflux as determined by nasogastric intubation, occurrence of borborygmi and timing of defecation after the first injection of the test compound.

[3] = Solubility in water; type: physicochemical; details: at 25° C. in water
Method: By “poorly soluble” is meant an active agent having a solubility in aqueous media more than 0.001% and less than 10%, e.g., less than 1%, e.g., less than 0:1%, e.g., less than 0.05%, e.g., less than 0.02%, at room temperature, e.g., 25° C.
(§1) which is referred hereinafter as Compound A, or a pharmaceutically acceptable salt form thereof, e.g., the hydrogen maleate (hereinafter “hml”) salt.

[4] = system: sensory perception of rectal distension; assay: Colonic perfusion manometry with balloon distension, sensation threshold in fasted healthy volunteers; type: in vivo; details: 2-12 mg p.o., assessed 30 to 90 min after dosing
Method: Intraluminal pressures and reflexes in the last 60 cm of the colon of 10 fasted healthy volunteers are measured by means of perfusion manometry. Three latex balloons positioned at 50, 30 and 10 cm, allow volume stimulation. Basal values of colonic intraluminal pressures and reflexes are established. Subsequently, reflex inhibitory relaxations of the internal anal sphincter is triggered by inflating the balloons by 10 ml increments up to a maximum volume of 150 ml. During the inflation phase, two parameters are evaluated: a) the reflux threshold (volume able to induce a substantial pressure decrease of the internal anal sphincter); and b) the sensation threshold (volume able to induce a conscious defecation reflex). After the basal recordings, each subject is given a 5-HT4 receptor agonist, partial agonist or antagonist, e.g., Compound A, p.o. and 30 to 90 min later the colonic intraluminal pressure and reflexes are assessed again by the same method.

[5] = Dissolution characteristics of oral tablet composition in water or USP buffers pH 6.8 and 7.5; type: physicochemical; details: composition comprising Tegaserod
Excerpt: In a further aspect the present invention provides a pharmaceutical oral, e.g., tablet, composition comprising one of the active agents cited above, e.g., a 5-HT4 agonist, partial agonist or antagonist, e.g., Tegaserod, said composition having dissolution characteristics in water or in USP buffers pH 6.8 and 7.5 of
For example a composition according to the invention, e.g., comprising Tegaserod as the active agent, may have dissolution characteristics in water or in USP buffers pH 6.8 and 7.5 of: […]

[6] = Acid sensitivity (degradation under slightly acidic conditions); type: physicochemical
Excerpt: Examples of compounds are known in the art and may be ascertained by routine experimentation.
as §1

solubility [3]: about 0.02%
amount (percentage) dissolved ([5]; time 5 minutes): 48.9 percentage
amount (percentage) dissolved ([5]; time 15 minutes): 95.5 percentage
amount (percentage) dissolved ([5]; time 30 minutes): 99.7 percentage
amount (percentage) dissolved ([5]; time 60 minutes): 100 percentage
acid sensitivity [6]: acid sensitive
SMILES: CCCCCNC(=N)NN=Cc1c[nH]c2ccc(OC)cc12 [Compound A, 3-(5-methoxy-1H-indol-3-yl-methylene)-N-pentylcarbazimidamide]
distension pressure at which the most prominent inhibition of firing occurs [1]: 50 mmHg
dose giving half-maximal reduction of the firing rate of rectal afferents [1]: about 0.7 mg/kg
restoration of normal motility function of the equine intestine [2]: effective in restoring normal motility function
sensation threshold (volume able to induce a conscious defecation reflex) [4]: significantly reduced
